Several values for one entry are separate records, joined by “and”; a condition that tells them apart may be missing. Equal values may be shown once. Some results are limits rather than exact numbers.

The assay relates to A498 complex spheroid viability. Briefly: Anticancer human tumor A498 cell line growth inhibition.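 As to all read-outs here: spheroids exposed to agents for seven days before readout.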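 As to viability, T/C: 100% = DMSO vehicle-treated spheroids.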 The note with it: for viability, T/C: stronger effect = lower value. The procedure, abridged:
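Drug combinations with the LSD1 inhibitor iadademstat tested on tumor cells co-cultured as spheroids with endothelial cells and mesenchymal stem cells. Concentrations descended in half-log increments from clinical Cmax or 10 microM.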

Setting [1] is: curve of first compound, second compound 0.1 µM.
[2] abbreviates: curve of first compound, second compound 0.316 µM.
Setting [3] is: curve of first compound, second compound 1 µM.
Setting [4] is: curve of first compound, second compound 3.16 µM.
Setting [5] is: curve of first compound, second compound 10 µM.
[6] abbreviates: second compound 0.1 µM, first compound 0.0316 µM.
[7] abbreviates: second compound 0.1 µM, first compound 0.1 µM.
Setting [8] is: second compound 0.1 µM, first compound 0.316 µM.
Setting [9] is: second compound 0.1 µM, first compound 1 µM.
Setting [10] is: second compound 0.1 µM, first compound 3.16 µM.
Setting [11] is: second compound 0.1 µM, first compound 10 µM.
The mark [12] stands for this setting: second compound 0.316 µM, first compound 0.0316 µM.
Setting [13] is: second compound 0.316 µM, first compound 0.1 µM.
Where [14] appears, read: second compound 0.316 µM, first compound 0.316 µM.
Where [15] appears, read: second compound 0.316 µM, first compound 1 µM.
[16] abbreviates: second compound 0.316 µM, first compound 3.16 µM.
[17] abbreviates: second compound 0.316 µM, first compound 10 µM.
[18] abbreviates: second compound 1 µM, first compound 0.0316 µM.
[19] abbreviates: second compound 1 µM, first compound 0.1 µM.
Setting [20] is: second compound 1 µM, first compound 0.316 µM.
The mark [21] stands for this setting: second compound 1 µM, first compound 1 µM.
Setting [22] is: second compound 1 µM, first compound 3.16 µM.
[23] abbreviates: second compound 1 µM, first compound 10 µM.
[24] abbreviates: second compound 3.16 µM, first compound 0.0316 µM.
Setting [25] is: second compound 3.16 µM, first compound 0.1 µM.
The mark [26] stands for this setting: second compound 3.16 µM, first compound 0.316 µM.
Where [27] appears, read: second compound 3.16 µM, first compound 1 µM.
The mark [28] stands for this setting: second compound 3.16 µM, first compound 3.16 µM.
The mark [29] stands for this setting: second compound 3.16 µM, first compound 10 µM.
Setting [30] is: second compound 10 µM, first compound 0.0316 µM.
Setting [31] is: second compound 10 µM, first compound 0.1 µM.
Where [32] appears, read: second compound 10 µM, first compound 0.316 µM.
Setting [33] is: second compound 10 µM, first compound 1 µM.
Setting [34] is: second compound 10 µM, first compound 3.16 µM.
The mark [35] stands for this setting: second compound 10 µM, first compound 10 µM.
Where [36] appears, read: second compound 0.1 µM, first compound 0.00316 µM.
Where [37] appears, read: second compound 0.1 µM, first compound 0.01 µM.
Where [38] appears, read: second compound 0.316 µM, first compound 0.00316 µM.
Setting [39] is: second compound 0.316 µM, first compound 0.01 µM.
[40] abbreviates: second compound 1 µM, first compound 0.00316 µM.
The mark [41] stands for this setting: second compound 1 µM, first compound 0.01 µM.
Setting [42] is: second compound 3.16 µM, first compound 0.00316 µM.
Where [43] appears, read: second compound 3.16 µM, first compound 0.01 µM.
Setting [44] is: second compound 10 µM, first compound 0.00316 µM.
[45] abbreviates: second compound 10 µM, first compound 0.01 µM.

Consider `COc1ccc([C@@H](O)c2cc(-c3ncnc4cc(N5CCOCC5)ccc34)c(F)cc2Cl)nn1` + NC1CC1c1ccc(-c2cccc(O)c2)cc1, for which the IC50 under setting [1] was 96.3 nM; the half-inhibitory concentration (IC50) under setting [2] is 112 nM; the IC50 under setting [3] is 96.2 nM; the IC50 under setting [4] is 89 nM; the IC50 under setting [5] came out at 69.9 nM. For the same molecule, the viability, T/C by setting is: under setting [6], 75%; under setting [7], 49.5%; under setting [8], 28.1%; under setting [9], 16.7%; under setting [10], 9.62%; under setting [11], 5.97%. The viability, T/C reads like this: under setting [12], 80.4%; under setting [13], 52.9%; under setting [14], 28.8%; under setting [15], 19.5%; under setting [16], 9.72%; under setting [17], 6.4%. For the same molecule, the viability, T/C under setting [18] was 70.6%; the viability, T/C under setting [19] was 50.1%; the viability, T/C under setting [20] is 27.4%; the viability, T/C under setting [21] is 17.2%; the viability, T/C under setting [22] is 9.2%; the viability, T/C under setting [23] is 6.15%. The viability, T/C was 73.1% under setting [24]; 46.8% under setting [25]; 29.7% under setting [26]; 16.7% under setting [27]; 8.9% under setting [28]; 5.52% under setting [29]. Also, the viability, T/C by setting is: under setting [30], 67.1%; under setting [31], 42.5%; under setting [32], 24.5%; under setting [33], 16.6%; under setting [34], 8.67%; under setting [35], 5.51%.

Consider `COc1ccc([C@@H](O)c2cc(-c3ncnc4cc(N5CCOCC5)ccc34)c(F)cc2Cl)nn1`, for which the viability, T/C by setting is: (compound 0.0316 µM) 84.8% and 74.3%; (compound 0.1 µM) 62.5% and 53.8%; (compound 0.316 µM) 33.1% and 28.8%; (compound 1 µM) 19.1% and 18.4%; (compound 3.16 µM) 10.7% and 9.71%; (compound 10 µM) 6.93% and 6.16%. The half-inhibitory concentration (IC50) (curve of compound) was 164 nM and 115 nM.

In the case of `Nc1ncn(C2CC(O)C(CO)O2)c(=O)n1` (stereo unspecified) + NC1CCC(NC2CC2c2ccccc2)CC1, the IC50 was determined as 177 nM under setting [1]; 279 nM under setting [2]; 218 nM under setting [3]; 195 nM under setting [4]; 224 nM under setting [5]. Moreover, the viability, T/C was 89.7% under setting [36]; 88.5% under setting [37]; 88.5% under setting [6]; 60.7% under setting [7]; 40% under setting [8]; 36.7% under setting [9]. The viability, T/C under setting [38] is 93.1%; the viability, T/C under setting [39] was 95.7%; the viability, T/C under setting [12] was 90.7%; the viability, T/C under setting [13] was 72.9%; the viability, T/C under setting [14] is 47.3%; the viability, T/C under setting [15] is 40.5%. The viability, T/C runs as follows: under setting [40], 89.2%; under setting [41], 89.7%; under setting [18], 89.2%; under setting [19], 62.4%; under setting [20], 46.4%; under setting [21], 34.9%. The viability, T/C was 82.5% under setting [42]; 88.4% under setting [43]; 78.4% under setting [24]; 66.6% under setting [25]; 38.1% under setting [26]; 29.3% under setting [27]. Further, the viability, T/C under setting [44] is 78%; the viability, T/C under setting [45] is 78.2%; the viability, T/C under setting [30] was 79.9%; the viability, T/C under setting [31] is 68.4%; the viability, T/C under setting [32] is 42.2%; the viability, T/C under setting [33] is 31.9%.

For `CCc1c2c(nc3ccc(O)cc13)-c1cc3c(c(=O)n1C2)COC(=O)[C@]3(O)CC`, the viability, T/C was 42.1% and 37.3% (compound 0.000949 µM); 33% and 33.4% (compound 0.003 µM); 24.4% and 22.1% (compound 0.00949 µM); 1.45% and 0.7% (compound 0.03 µM); 0.15% (compound 0.0949 µM); 0.18% and 0.21% (compound 0.3 µM). The concentration for half-maximal inhibition (IC50) (curve of compound) was under 0.949 nM.

Turning to `O=C(C=Cn1cnc(-c2cc(C(F)(F)F)cc(C(F)(F)F)c2)n1)NNc1cnccn1` + NC1CCC(NC2CC2c2ccccc2)CC1, the half-inhibitory concentration (IC50) is, setting by setting: under setting [1], 5.21 nM; under setting [2], 7.74 nM; under setting [3], 6.26 nM; under setting [4], 6.7 nM; under setting [5], 4.09 nM. Besides, the viability, T/C reads like this: under setting [36], 56.5%; under setting [37], 40.9%; under setting [6], 33.6%; under setting [7], 26.6%; under setting [8], 24.9%; under setting [9], 20.9%. The viability, T/C reads like this: under setting [38], 66.7%; under setting [39], 44.4%; under setting [12], 33.5%; under setting [13], 31.2%; under setting [14], 24.1%; under setting [15], 23.4%. Moreover, the viability, T/C was 62.4% under setting [40]; 39.2% under setting [41]; 34.1% under setting [18]; 27.1% under setting [19]; 21.9% under setting [20]; 21.2% under setting [21]. Further, the viability, T/C runs as follows: under setting [42], 61.5%; under setting [43], 42.6%; under setting [24], 34.1%; under setting [25], 26.9%; under setting [26], 21.5%; under setting [27], 20.5%. The viability, T/C is 53.4% under setting [44]; 39.2% under setting [45]; 31.1% under setting [30]; 26.4% under setting [31]; 22.9% under setting [32]; 16.4% under setting [33].

As for `CC[C@@]1(O)C(=O)OCc2c1cc1n(c2=O)Cc2cc3c(CN(C)C)c(O)ccc3nc2-1`, the viability, T/C was 106% and 95.2% (compound 0.000316 µM); 103% and 95.8% (compound 0.001 µM); 86.4% and 82.6% (compound 0.00316 µM); 84.5% and 79.2% (compound 0.01 µM); 62.7% and 56.4% (compound 0.0316 µM); 33.7% and 32.4% (compound 0.1 µM). Also, the IC50 (curve of compound) was 52.5 nM and 44.6 nM.

For `CC(C)c1c(-c2ccccc2)nc2c(C#N)c[nH]n2c1=O` + NC1CC1c1ccc(-c2cccc(O)c2)cc1, the IC50 under setting [1] was over 10000 nM; the half-maximal inhibitory concentration (IC50) under setting [2] is over 10000 nM; the IC50 under setting [3] is over 10000 nM; the IC50 under setting [4] was over 10000 nM; the IC50 under setting [5] was over 10000 nM. The viability, T/C by setting is: under setting [6], 98%; under setting [7], 113%; under setting [8], 106%; under setting [9], 102%; under setting [10], 104%; under setting [11], 108%. The viability, T/C was 104% under setting [12]; 101% under setting [13]; 101% under setting [14]; 107% under setting [15]; 99.1% under setting [16]; 97.4% under setting [17]. Moreover, the viability, T/C under setting [18] is 93.4%; the viability, T/C under setting [19] is 101%; the viability, T/C under setting [20] is 95.6%; the viability, T/C under setting [21] is 99.5%; the viability, T/C under setting [22] is 89%; the viability, T/C under setting [23] was 98%. For the same molecule, the viability, T/C under setting [24] was 97.4%; the viability, T/C under setting [25] was 94%; the viability, T/C under setting [26] was 97.5%; the viability, T/C under setting [27] is 94.7%; the viability, T/C under setting [28] was 94.9%; the viability, T/C under setting [29] was 98.5%. Also, the viability, T/C was 86.7% under setting [30]; 92% under setting [31]; 91.3% under setting [32]; 97.4% under setting [33]; 96.1% under setting [34]; 94.9% under setting [35].

The term IC50 denotes the concentration needed to halve the response being measured. One may read the viability, T/C as the ratio of treated to control.
